Measurements taken from US8822449B2, “Substituted aminoindanes and analogs thereof, and the pharmaceutical use thereof” (Sanofi, priority 2008, dated 2014).

target: T1, sodium-proton exchanger of subtype 3 (NHE3) (Homo sapiens, UniProt P48764); test: Recovery of intracellular pH (pHi) after acidification in LAP1 cells stably expressing NHE3 (BCECF fluorescence, FLIPR); format: cell-based; conditions: Activity range (inhibitory effect on NHE3), LAP1 cells stably expressing NHE3; pH recovery after acidification; range 1 is % inhibition at 10 μM
T1 construct: expressed in transfected cells
T1 sequence (P48764 26-834): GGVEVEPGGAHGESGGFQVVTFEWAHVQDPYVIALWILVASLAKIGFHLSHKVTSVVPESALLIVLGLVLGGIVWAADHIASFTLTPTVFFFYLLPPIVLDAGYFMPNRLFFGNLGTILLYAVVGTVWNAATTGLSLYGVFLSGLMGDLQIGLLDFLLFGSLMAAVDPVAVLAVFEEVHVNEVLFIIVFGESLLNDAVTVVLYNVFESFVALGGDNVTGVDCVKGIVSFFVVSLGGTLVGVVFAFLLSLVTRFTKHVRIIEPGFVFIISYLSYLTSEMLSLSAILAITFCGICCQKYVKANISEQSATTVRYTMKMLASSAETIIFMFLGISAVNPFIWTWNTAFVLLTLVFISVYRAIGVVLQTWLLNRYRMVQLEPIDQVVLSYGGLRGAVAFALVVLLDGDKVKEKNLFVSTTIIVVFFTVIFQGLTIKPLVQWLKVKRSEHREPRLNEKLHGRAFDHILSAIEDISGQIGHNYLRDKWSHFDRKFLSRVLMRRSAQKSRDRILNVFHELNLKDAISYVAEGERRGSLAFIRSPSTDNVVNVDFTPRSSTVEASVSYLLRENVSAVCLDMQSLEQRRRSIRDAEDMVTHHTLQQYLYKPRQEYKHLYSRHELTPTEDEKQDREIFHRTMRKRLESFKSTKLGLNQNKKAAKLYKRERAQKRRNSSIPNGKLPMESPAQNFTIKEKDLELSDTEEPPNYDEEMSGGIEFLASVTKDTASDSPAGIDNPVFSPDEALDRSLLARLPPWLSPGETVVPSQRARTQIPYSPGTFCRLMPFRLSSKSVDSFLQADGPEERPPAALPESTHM

Structure (SMILES)	IC50 [nM]
CCN(CC)[C@@H]1Cc2ccccc2[C@H]1Oc1ccc(N2CCNCC2)cc1 (racemic) [Example 627, Diethyl-[rac-trans-(1,2)-1-(4-piperazin-1-ylphenoxy)indan-2-yl]amine]	1000 to 10000

same assay, conditions: LAP1 cells stably expressing NHE3; pH recovery after acidification; range 1 is % inhibition at 10 μM; read-out: Activity range (inhibitory effect on NHE3)

Structure (SMILES)	IC50 [nM]	inhibition at 10 µM [%]
N[C@@H]1CCCN([C@H]2CCc3ccccc3[C@@H]2Oc2ccc3ccncc3c2)C1 (racemic) [Example 84, (R)-1-[rac-trans-(1,2)-1-(isoquinolin-7-yloxy)-1,2,3,4-tetrahydronaphthalen-2-yl]piperidin-3-ylamine]	< 1000	–
NCC1CCN([C@@H]2Cc3ccccc3[C@H]2Oc2ccc3[nH]cc(CC(N)=O)c3c2)CC1 (racemic) [Example 388, 2-{5-[rac-trans-(1,2)-2-(4-aminomethylpiperidin-1-yl)indan-1-yloxy]-1H-indol-3-yl}acetamide]	1000 to 10000	–
CS(=O)(=O)c1ccc(O[C@H]2c3cc(Cl)cc(Cl)c3C[C@@H]2N2CCCNCC2)c(Cl)c1 [Example 295, 1-[trans-(1S,2S)-4,6-dichloro-1-(2-chloro-4-methanesulfonylphenoxy)indan-2-yl]-[1,4]diazepane]	< 1000	–
Cc1nnc(C(C)C)n1-c1ccc(O[C@H]2c3cc(Cl)cc(F)c3C[C@@H]2N2CC[C@@H](O)C2)cc1 [Example 721, (R)-1-{trans-(1S,2S)-6-Chloro-4-fluoro-1-[4-(3-isopropyl-5-methyl-[1,2,4]triazol-4-yl)-phenoxy]-indan-2-yl}-pyrrolidin-3-ol]	1000 to 10000	–
Cc1cc(-n2c(C)nnc2C)ccc1O[C@H]1c2cc(Cl)cc(Cl)c2C[C@@H]1N1CC[C@@H](O)C1 [Example 131, (R)-1-{trans-(1S,2S)-4,6-dichloro-1-[4-(3,5-dimethyl-[1,2,4]triazol-4-yl)-2-methylphenoxy]indan-2-yl}pyrrolidin-3-ol]	< 1000	–
N#Cc1ccc(O[C@H]2c3cc(Cl)cc(Cl)c3C[C@@H]2N2CCC2)c(F)c1 [Example 454, 4-((1S,2S)-2-azetidin-1-yl-4,6-dichloroindan-1-yloxy)-3-fluorobenzonitrile]	–	20 to 50
CC(=O)Nc1cccc(O[C@H]2c3cccc(Cl)c3C[C@@H]2N2CCCC2)c1 (racemic) [Example 649, N-[3-(rac-trans-(1,2)-4-chloro-2-pyrrolidin-1-ylindan-1-yloxy)phenyl]acetamide]	–	20 to 50
NS(=O)(=O)c1ccc(O[C@@H]2c3ccccc3C[C@H]2NC2CCCCCC2)c(F)c1 (racemic) [Example 713, 4-(rac-trans-(1,2)-2-Cycloheptylamino-indan-1-yloxy)-3-fluoro-benzenesulfonamide]	1000 to 10000	–
Cc1c(Cl)cccc1O[C@@H]1c2ccccc2C[C@H]1N1CCC(CN)C1 (mixture of isomers) [Example 611, C-{1-[rac-trans-(1,2)-1-(3-chloro-2-methylphenoxy)indan-2-yl]pyrrolidin-3-yl}methylamine]	1000 to 10000	–
CS(=O)(=O)c1ccc(O[C@H]2c3cc(F)cc(Cl)c3C[C@@H]2N2CCCC2)cc1 (racemic) [Example 284, 1-[rac-trans-(1,2)-4-chloro-6-fluoro-1-(4-methanesulfonylphenoxy)indan-2-yl]pyrrolidine]	1000 to 10000	–
O=S(=O)(NCCC(F)(F)F)c1ccc(O[C@H]2c3ccccc3C[C@@H]2N2CCCC2)cc1 (racemic) [Example 470, 4-(rac-trans-(1,2)-2-pyrrolidin-1-ylindan-1-yloxy)-N-(3,3,3-trifluoropropyl)benzenesulfonamide]	1000 to 10000	–
Cc1nnc(C)n1-c1ccc(O[C@H]2c3cc(Cl)ccc3C[C@@H]2N2CC[C@@H](O)C2)cc1 [Example 145, (R)-1-{trans-(1S,2S)-6-chloro-1-[4-(3,5-dimethyl-[1,2,4]triazol-4-yl)phenoxy]indan-2-yl}pyrrolidin-3-ol]	< 1000	–
N[C@H]1CCCN([C@H]2CCc3ccccc3[C@@H]2Oc2cccc(Cl)c2)C1 (racemic) [Example 165, (S)-1-[rac-trans-(1,2)-1-(3-chlorophenoxy)-1,2,3,4-tetrahydronaphthalen-2-yl]piperidin-3-ylamine]	–	20 to 50
CN(C)S(=O)(=O)c1cc(Cl)c(O[C@H]2c3ccccc3C[C@@H]2N2CCCC2)c(Cl)c1 (racemic) [Example 403, 3,5-dichloro-N,N-dimethyl-4-(rac-trans-(1,2)-2-pyrrolidin-1-ylindan-1-yloxy)benzenesulfonamide]	1000 to 10000	–
CN(C)C1Cc2ccccc2C1Oc1ccc(S(N)(=O)=O)c(Cl)c1Cl (racemic) [Example 356, 2,3-dichloro-4-(rac-trans-(1,2)-2-dimethylaminoindan-1-yloxy)benzenesulfonamide]	< 1000	–
Cc1nnc(C)n1-c1ccc(O[C@H]2c3ccccc3C[C@@H]2N2CCCC2)cc1 (racemic) [Example 405, 3,5-dimethyl-4-[4-(rac-trans-(1,2)-2-pyrrolidin-1-ylindan-1-yloxy)phenyl]-4H-[1,2,4]triazole]	< 1000	–
Cc1nnc(C)n1-c1ccc(O[C@H]2c3cc(Cl)cc(Cl)c3C[C@@H]2N2CC[C@H](O)C2)c(F)c1 [Example 200, (S)-1-{(1S,2S)-4,6-dichloro-1-[4-(3,5-dimethyl-[1,2,4]triazol-4-yl)-2-fluorophenoxy]indan-2-yl}pyrrolidin-3-ol]	< 1000	–
NS(=O)(=O)c1ccc(O[C@H]2c3cc(Cl)cc(Cl)c3C[C@@H]2N2CCC(F)(F)CC2)cc1 [Example 484, 4-[(1S,2S)-4,6-dichloro-2-(4,4-difluoropiperidin-1-yl)indan-1-yloxy]benzenesulfonamide]	–	20 to 50
N#Cc1ccc(O[C@H]2c3ccccc3CC[C@@H]2N2CCC[C@H](N)C2)c(Cl)c1 (racemic) [Example 532, 4-[rac-trans-(1,2)-2-((S)-3-aminopiperidin-1-yl)-1,2,3,4-tetrahydronaphthalen-1-yloxy]-3-chlorobenzonitrile]	1000 to 10000	–
CS(=O)(=O)c1ccc(OC2c3ccccc3CC2N2CCC[C@@H](N)C2)c(Cl)c1Cl (mixture of isomers) [Example 31, (R)-1-[rac-trans-(1,2)-1-(2,3-dichloro-4-methanesulfonylphenoxy)indan-2-yl]piperidin-3-ylamine]	< 1000	–
NCC1CCN([C@@H]2Cc3ccccc3[C@H]2Oc2ccc3c(c2)OCO3)C1 (mixture of isomers) [Example 621, C-{1-[rac-trans-(1,2)-1-(benzo[1,3]dioxol-5-yloxy)indan-2-yl]pyrrolidin-3-yl}methylamine]	1000 to 10000	–
N[C@@H]1CCCN([C@H]2CCc3ccccc3[C@@H]2Oc2ccnc(Cl)c2)C1 (racemic) [Example 40, (R)-1-[rac-trans-(1,2)-1-(2-chloropyridin-4-yloxy)-1,2,3,4-tetrahydronaphthalen-2-yl]piperidin-3-ylamine]	–	20 to 50
N[C@@H]1CCCN([C@H]2CCc3ccccc3[C@@H]2Oc2cccc3ccc(Cl)nc23)C1 (racemic) [Example 41, (R)-1-[rac-trans-(1,2)-1-(2-chloroquinolin-8-yloxy)-1,2,3,4-tetrahydronaphthalen-2-yl]piperidin-3-ylamine]	1000 to 10000	–
CS(=O)(=O)c1ccc(O[C@H]2c3ccccc3C[C@@H]2NC2CCCC2)cc1 (racemic) [Example 623, Cyclopentyl-[1-(4-methanesulfonylphenoxy)indan-2-yl]amine]	1000 to 10000	–
CS(=O)(=O)c1ccc(N[C@H]2c3cc(Cl)cc(Cl)c3C[C@@H]2N2CC[C@@H](O)C2)cc1 [Example 26, (R)-1-[(1S,2S)-4,6-dichloro-1-(4-methanesulfonylphenylamino)indan-2-yl]pyrrolidin-3-ol]	1000 to 10000	–
NS(=O)(=O)c1ccc(O[C@H]2c3ccccc3C[C@@H]2CN2CCOCC2)c(F)c1 (racemic) [Example 449, 3-fluoro-4-(2-morpholin-4-ylmethylindan-1-yloxy)benzenesulfonamide]	–	20 to 50
O=C1OCCN1c1ccc(O[C@H]2c3cc(Cl)cc(Cl)c3C[C@@H]2N2CC[C@@H](O)C2)cc1 [Example 429, 3-{4-[trans-(1S,2S)-4,6-dichloro-2-((R)-3-hydroxypyrrolidin-1-yl)indan-1-yloxy]phenyl}oxazolidin-2-one]	1000 to 10000	–
Cc1nnc(C)n1-c1cccc(O[C@H]2c3ccccc3C[C@@H]2N2CCCC2)c1 (racemic) [Example 404, 3,5-dimethyl-4-[3-(rac-trans-(1,2)-2-pyrrolidin-1-ylindan-1-yloxy)phenyl]-4H-[1,2,4]triazole]	–	20 to 50
N#Cc1ccc(O[C@@H]2c3ccccc3C[C@H]2N2C[C@H]3CNC[C@H]3C2)cc1Cl (racemic) [Example 393, 2-chloro-4-[rac-trans-(1,2)-2-(hexahydropyrrolo[3,4-c]pyrrol-2-yl)indan-1-yloxy]benzonitrile]	1000 to 10000	–
CS(=O)(=O)c1ccc(O[C@H]2c3cc(Cl)cc(Cl)c3C[C@@H]2N2CCNC(C(F)(F)F)C2)cc1 (mixture of isomers) [Example 301, 1-[trans-(1S,2S)-4,6-dichloro-1-(4-methanesulfonylphenoxy)indan-2-yl]-3-trifluoromethylpiperazine]	–	20 to 50
